This is an account of results in a melting point compilation (Tetko et al.; mined from patent text by program, amines drawn as free bases though some values may be those of a salt).

In the case of `Cc1cccc(-c2[nH]c(C(C)C)nc2-c2ccc(F)c(-c3ccc[nH]3)c2)n1`, the melting point is 103 to 106 °C. On to `Cc1nn2c(-c3cc(Cl)ccc3Cl)ccnc2c1C#N`, for which the melting point lay within 234 to 236 °C. Regarding `O=C1NC(=O)C(Cc2ccc(OCCN3CCOCC3)cc2)S1` (stereo not drawn), the melting point is 188 to 189 °C. In turn, `Clc1ccc([C@@]2(Cn3ccnc3)OC[C@H](COc3ccc4c(c3)CCNC4)O2)c(Cl)c1` (racemic) showed a melting point of 143 to 145 °C. Take `CC(C(=O)Nc1ccc(Cl)cc1Cl)N1C(=O)C=CC1=O` (stereo not drawn): the melting point is 131 °C. Consider `CC(C)(c1ccc(OCCO)cc1)c1ccc(OCCO)cc1`, for which the melting point was in the range of 110 to 111 °C.

Turning to `Cc1cc2n(C)c(=O)c3cnc4c(cnn4C)c3n2n1`, the melting point lay in the range of 178 to 180 °C. As for `CCCCOc1ccc(CC(CC(=O)NO)S(=O)(=O)c2ccc(OC)cc2)cc1` (stereo not drawn), the melting point is 55 to 60 °C. As for `CCOc1ccc(OCCCN2CCC(C(O)(c3ccc(F)cc3)c3ccc(F)cc3)CC2)cc1`, the melting point was in the range of 89 to 91 °C.

Regarding `CC(C)Oc1ccccc1C1(N[C@H](CO)c2ccccc2)C(=O)Nc2ccc(Cl)cc21` (stereo partly drawn), the melting point turned out to be 193 °C. Regarding `CCOc1ccc(N)c(S)c1`, the melting point turned out to be 104 °C.

With `CCNCC1CN(c2c(F)cc3c(=O)c(C(=O)O)cn(C4CC4)c3c2F)C1`, the melting point was in the range of 237 to 242 °C.

Take `CCCS(=O)(=O)Nc1cccc(C)c1C(N)c1cccn2c(C)c(C)nc12` (stereo not drawn): the melting point lay in the range of 245 to 248 °C.

With `COC(=O)CSCc1sccc1S(=O)(=O)N(C)c1cccc2cc(-c3nccs3)[nH]c12`, the melting point is 126 °C. Turning to `CC(C)[C@H](CCC(=O)OCc1ccccc1)NC(=O)OC(C)(C)C`, the melting point fell in the range of 94 to 96 °C.

The molecule `O=C(O)c1ccc(Cl)cc1Cc1ccccc1` showed a melting point of 142 to 144 °C. Molecule `COc1sc(-c2cc[nH]n2)c2c1C(=O)CC(C)(C)C2` registered a melting point of 202 to 204 °C. The figure for `COc1c(C)c2c(c(O)c1CC=C(C)CC(C)C(=O)O)C(=O)OC2` (stereo not drawn) is 122 to 123 °C; for `CC(N)C(=O)N1CC(=O)N(CC(N)=O)C1(C)C` (stereo not drawn) it is 196 to 197 °C. In turn, `CCCCCCCCCCCCCCCCCC(=O)c1ccc(OC)c(C(=O)O)c1` registered a melting point of 194 to 196 °C.

As to `Cc1ccccc1-c1cc2cc(O)c(Cl)c(Cl)c2s1`, the melting point was 106 to 107 °C. On to `C=CCn1c(=O)n(-c2ccc3c(c2)OCO3)c2ncc([N+](=O)[O-])cc21`, for which the melting point fell in the range of 152 to 153 °C.

In the case of `CCCc1nc(C(O)C(C)(C)C)c(C(N)=O)n1Cc1ccc(-c2ccccc2C(=O)O)cc1` (stereo not drawn), the melting point is > 160 °C. In turn, `CC(=O)N[C@@H](CCC(N)=O)C(=O)NC1(C(=O)NCCCCNC(N)=NC#N)Cc2ccccc2C1` registered a melting point of 122 to 133 °C.

Regarding `CCC(=O)NCCCC(=O)O`, the melting point lay in the range of 85 to 90 °C.

The molecule `COC(=O)c1cc(C(F)(F)F)ccc1N` returned a melting point of 51 to 52 °C. As to `CN=C(NS(=O)(=O)N1CCC(F)(F)CC1)N1CC(c2ccccc2)C(c2ccc(Cl)cc2)=N1` (stereo not drawn), the melting point was 158 to 160 °C. For `CCCCN(C)C(=O)CSCCCCCCOc1ccc(C2=C(c3ccccc3)CCCc3cc(O)ccc32)cc1`, the melting point is 103 to 105 °C.

`O=C(O)C1(C(F)F)c2ccccc2Oc2ccccc21` returned a melting point of 181 to 182 °C. `CC(C)(C)C(=O)OC1CCC2(C)C(=CC(O)C3C2CCC2(C)C(=O)CC(OC(=O)C(C)(C)C)C32)C1` (stereo not drawn): the melting point fell in the range of 195 to 197 °C. The molecule `Cn1nc(C(F)(F)F)cc1Oc1ccnc(-c2ccc(F)cc2)n1` returned a melting point of 101 to 102 °C. `O=C(O)c1cc(Cl)cc2c1NC(c1ccccc1)CC2` (stereo not drawn) yielded a melting point of 199 to 200 °C. As to `CCOC(=O)C(=Cc1ccc(C)s1)C(=O)OCC`, the melting point lay within 53 to 56 °C. In the case of `c1ccc(Sc2ccc3[nH]ccc3c2)cc1`, the melting point was in the range of 97 to 99 °C. On to `Cc1c2ccccc2c(C)c2cc3c(cc12)C(=O)OC3=O`, for which the melting point was determined as 278 °C. As for `NNC(=O)c1ccccc1-c1ccc([N+](=O)[O-])cc1`, the melting point is 194 to 196 °C.

Molecule `COc1ccc(N2CCN(c3c(C)c(C)c4c(c3C)C(OCc3ccc(C)cc3)C(C)(C)O4)CC2)cc1` (stereo not drawn) returned a melting point of 84 to 85 °C. In turn, `CCCc1nc(C)c(C=O)n1Cc1ccc(-c2ccccc2C(=O)O)cc1` gave a melting point of 243 to 245 °C. For `C=CCc1c2n(c3ccccc13)C(=O)C(=Cc1ncn(C(c3ccccc3)(c3ccccc3)c3ccccc3)c1C)CC2`, the melting point was 211 to 214 °C. Next, `CCCCCCOc1ccc(-n2c(-c3ccc(Br)cc3)ccc2-c2ccc(Br)cc2)cc1`: 201 to 202 °C; `CC(=O)OCc1nc2cc(Cl)c(CBr)cc2c(=O)[nH]1`: 190 to 195 °C. Next, `CC1(c2ccc(I)cc2)CO1` (stereo not drawn): 44 to 45 °C; `CC(=O)Oc1cccnc1-n1ccnc1S(=O)Cc1ccccc1N1CCOCC1` (stereo not drawn): 104 to 107 °C. Next, `c1ccc2[nH]c(-c3cc[nH]n3)nc2c1`: 335 to 338 °C. `O=C(Nc1cccc2c(=O)cc(C(=O)O)oc12)c1ccc2c(c1)CC(CSCc1ccccc1)O2` (stereo not drawn) gave a melting point of 122 to 125 °C. Take `CCCCCCN(C(=O)C(C)C)c1sc(CC)cc1C(=O)O`: the melting point is 98 to 101 °C. For the molecule `CCCCS(=O)(=O)c1c(Cl)nc(Cl)nc1Cl`, the melting point lay in the range of 71 to 72 °C. Next, `CC(C)Oc1ccc(C2Cc3ccccc3C(=O)N2C)cc1` (stereo not drawn): 115 to 116 °C. `Cc1c(C)c(N2CCN(c3nncs3)CC2)c(C)c2c1OC(C)C2` (stereo not drawn) registered a melting point of 203 to 205 °C.

`COC(=O)[C@H](Cc1ccc(O)cc1)NC(=O)Cc1ccccc1`: the melting point turned out to be 101 °C. For `COc1ccc(C2S(=O)(=O)CCCS2(=O)=O)cc1OC`, the melting point was 243 to 245 °C. The figure for `O=C(Cc1c(-c2ccccc2)c2cc(CN3CCOCC3)c(Cl)cc2oc1=O)Nc1ccc(Cl)cc1C(F)(F)F` is 205 to 207 °C; for `CCCCOC(=O)c1ccc2nc(N)[nH]c2c1` it is 183 to 185 °C; for `CC(C)(C)OC(=O)N[C@@H](Cc1ccccc1)C(=O)NCCC(=O)OCc1ccccc1` it is 93 to 96 °C. Turning to `O=c1[nH]nc(-c2nc3ccccc3o2)[nH]1`, the melting point was > 300 °C.

For `CN(Cc1cc(C(F)(F)F)cc(C(F)(F)F)c1)C(=O)c1c(-c2ccc(F)cc2)c2ccsc2c(=O)n1C`, the melting point is 196 to 197 °C. Regarding `O=C(Nc1cccc(C(F)(F)F)c1)c1cc(-c2ccc(F)cc2F)ccc1O`, the melting point is 202 to 203 °C. With `CCCCCCCCNC(=O)OCc1ccccc1[N+](=O)[O-]`, the melting point lay within 70 to 71 °C.

Consider `COc1cn(-c2ccc(N3CCC3=O)cc2F)nc(-c2ccnn2-c2ccccc2)c1=O`, for which the melting point lay in the range of 189 to 194 °C. In turn, `O=C(CCc1cccnc1)NCCCCC1CCN(S(=O)(=O)c2ccc3ccccc3c2)CC1` displayed a melting point of 103 to 105 °C. On to `CCC(CC)c1cccc(C[C@H]2C(=O)O[C@H](c3ccccc3)[C@H](c3ccccc3)N2C(=O)OC(C)(C)C)c1`, for which the melting point lay within 143 to 144 °C. The figure for `COc1cc([N+](=O)[O-])c(N)cc1C(=O)N1CCCC1` is 159 to 162 °C. As for `CCOC(=S)CC/C(C)=C/Cc1c(OC)c(C)c2c(c1OC(N)=O)C(=O)OC2`, the melting point lay within 145 to 147 °C.

In general, melting point refers to the temperature of the solid-liquid transition.
